# In PMC10322970, “Modular synthesis of clickable peptides via late-stage maleimidation on C(7)-H tryptophan” (Nature Communications, 2023):
# Key:
# [1] = Rh(III)-catalysed intramolecular C(7)-H maleimidation of N-pivaloyl Trp (oxidative Heck-type C-C bond, indole C7 to maleimide CH): [RhCp*Cl2]2 10 mol%, AgNTf2 40 mol%, Ag2O 1.5 eq; details: DCM, 12.0 mM, 80.0 °C, 24.0 h
# [2] = system: U87MG cells; assay: Cytotoxicity by MTT assay, U87MG; details: U87MG (integrin αvβ3-positive), 0–40 μM, 36 h
# [3] = system: LO2 cells; assay: Cytotoxicity by MTT assay, LO2; details: LO2 normal cells, 0–40 μM, 36 h
# [4] = system: MCF-7 cells; assay: Cytotoxicity by MTT assay, MCF-7; details: MCF-7 (integrin αvβ3-negative), 0–40 μM, 36 h
# [5] = system: MIHA cells; assay: Cytotoxicity by MTT assay, MIHA; details: MIHA normal cells, 0–40 μM, 36 h
# [6] = system: A549 cells; assay: Cytotoxicity by MTT assay, A549; details: A549 (integrin αvβ3-positive), 0–40 μM, 36 h
# [7] = system: HeLa cells; assay: Cytotoxicity by MTT assay, HeLa; details: HeLa (integrin αvβ3-negative), 0–40 μM, 36 h
# [8] = molecular target: integrin αvβ5 (Homo sapiens, UniProt P06756+P18084); assay: SPR binding to immobilised integrin αvβ5; details: for kon: read-out: ka
# integrin αvβ5, sequence (P06756 31-1048): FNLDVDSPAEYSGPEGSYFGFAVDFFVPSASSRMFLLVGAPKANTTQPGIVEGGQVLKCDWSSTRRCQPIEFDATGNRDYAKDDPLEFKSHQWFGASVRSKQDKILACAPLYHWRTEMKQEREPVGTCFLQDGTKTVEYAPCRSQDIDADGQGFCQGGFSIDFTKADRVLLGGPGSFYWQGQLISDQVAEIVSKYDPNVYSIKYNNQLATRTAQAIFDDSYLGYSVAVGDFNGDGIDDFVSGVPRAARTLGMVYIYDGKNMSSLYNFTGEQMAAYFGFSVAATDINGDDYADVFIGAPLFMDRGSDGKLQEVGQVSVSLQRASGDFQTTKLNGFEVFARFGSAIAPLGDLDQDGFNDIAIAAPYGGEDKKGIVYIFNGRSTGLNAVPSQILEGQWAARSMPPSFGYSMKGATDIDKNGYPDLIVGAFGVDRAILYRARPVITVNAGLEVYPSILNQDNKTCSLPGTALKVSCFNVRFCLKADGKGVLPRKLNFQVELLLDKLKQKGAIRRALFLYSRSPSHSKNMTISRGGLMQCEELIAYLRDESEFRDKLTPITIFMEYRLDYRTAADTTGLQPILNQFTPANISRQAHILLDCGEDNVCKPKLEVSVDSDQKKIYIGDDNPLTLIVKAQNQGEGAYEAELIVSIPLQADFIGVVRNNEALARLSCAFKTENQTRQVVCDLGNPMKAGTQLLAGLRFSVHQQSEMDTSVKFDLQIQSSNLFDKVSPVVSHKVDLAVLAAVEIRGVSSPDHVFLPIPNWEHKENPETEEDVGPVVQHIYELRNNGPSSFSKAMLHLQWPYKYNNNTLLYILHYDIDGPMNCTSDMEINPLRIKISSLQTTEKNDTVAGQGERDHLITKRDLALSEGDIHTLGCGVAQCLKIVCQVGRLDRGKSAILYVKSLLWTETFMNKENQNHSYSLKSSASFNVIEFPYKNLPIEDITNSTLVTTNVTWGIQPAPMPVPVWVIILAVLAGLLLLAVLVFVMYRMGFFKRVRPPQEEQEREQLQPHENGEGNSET
# integrin αvβ5, sequence (P18084 24-799): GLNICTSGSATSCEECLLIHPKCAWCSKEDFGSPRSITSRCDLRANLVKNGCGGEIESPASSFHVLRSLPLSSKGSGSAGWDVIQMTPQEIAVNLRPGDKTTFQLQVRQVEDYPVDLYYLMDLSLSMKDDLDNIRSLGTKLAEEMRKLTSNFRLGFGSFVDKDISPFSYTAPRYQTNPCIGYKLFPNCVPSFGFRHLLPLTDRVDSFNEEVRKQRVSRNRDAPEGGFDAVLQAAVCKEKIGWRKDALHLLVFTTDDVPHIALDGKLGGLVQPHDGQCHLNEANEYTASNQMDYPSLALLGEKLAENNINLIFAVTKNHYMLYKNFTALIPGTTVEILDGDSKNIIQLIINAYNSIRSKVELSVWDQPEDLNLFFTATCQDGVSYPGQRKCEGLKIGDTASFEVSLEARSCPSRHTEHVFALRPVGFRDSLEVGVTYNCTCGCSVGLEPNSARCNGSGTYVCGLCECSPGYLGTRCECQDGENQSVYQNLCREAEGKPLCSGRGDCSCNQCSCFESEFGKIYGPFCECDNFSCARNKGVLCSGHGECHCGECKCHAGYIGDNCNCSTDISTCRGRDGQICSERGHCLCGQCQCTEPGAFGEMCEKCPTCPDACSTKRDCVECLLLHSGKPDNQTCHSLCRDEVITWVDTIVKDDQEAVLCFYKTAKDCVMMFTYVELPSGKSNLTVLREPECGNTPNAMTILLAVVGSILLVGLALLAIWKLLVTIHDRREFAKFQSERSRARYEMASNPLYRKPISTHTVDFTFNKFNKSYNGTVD
# [9] = molecular target: integrin α5β1 (Homo sapiens, UniProt P05556+P08648); assay: SPR binding to immobilised integrin α5β1; details: for kon: read-out: ka
# integrin α5β1, sequence (P08648 42-1049): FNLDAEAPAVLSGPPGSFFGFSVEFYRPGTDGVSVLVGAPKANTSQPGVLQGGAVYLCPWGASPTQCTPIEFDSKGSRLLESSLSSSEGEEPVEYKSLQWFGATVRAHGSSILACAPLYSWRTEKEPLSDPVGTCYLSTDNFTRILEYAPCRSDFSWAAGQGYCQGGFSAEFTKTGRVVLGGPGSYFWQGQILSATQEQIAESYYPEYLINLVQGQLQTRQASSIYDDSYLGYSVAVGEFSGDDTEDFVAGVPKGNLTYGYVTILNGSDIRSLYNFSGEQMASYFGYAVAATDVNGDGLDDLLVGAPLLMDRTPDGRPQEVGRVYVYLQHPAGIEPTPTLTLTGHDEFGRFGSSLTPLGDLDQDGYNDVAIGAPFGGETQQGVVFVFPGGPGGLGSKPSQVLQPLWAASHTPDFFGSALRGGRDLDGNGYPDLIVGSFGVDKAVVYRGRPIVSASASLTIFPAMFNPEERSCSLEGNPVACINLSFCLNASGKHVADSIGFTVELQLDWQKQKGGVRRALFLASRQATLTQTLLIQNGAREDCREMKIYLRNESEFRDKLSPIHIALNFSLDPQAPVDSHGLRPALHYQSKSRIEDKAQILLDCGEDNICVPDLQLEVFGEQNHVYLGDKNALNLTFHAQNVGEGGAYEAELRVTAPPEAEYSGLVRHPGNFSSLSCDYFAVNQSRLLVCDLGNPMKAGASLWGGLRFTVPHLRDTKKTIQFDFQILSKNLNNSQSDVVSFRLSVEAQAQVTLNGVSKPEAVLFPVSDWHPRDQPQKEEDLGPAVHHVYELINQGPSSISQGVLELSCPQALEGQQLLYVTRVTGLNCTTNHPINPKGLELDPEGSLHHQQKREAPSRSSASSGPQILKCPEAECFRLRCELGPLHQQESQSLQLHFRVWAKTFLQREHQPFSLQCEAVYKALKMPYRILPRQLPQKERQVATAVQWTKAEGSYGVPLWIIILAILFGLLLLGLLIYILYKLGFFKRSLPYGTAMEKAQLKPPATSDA
# integrin α5β1, sequence (P05556 21-798): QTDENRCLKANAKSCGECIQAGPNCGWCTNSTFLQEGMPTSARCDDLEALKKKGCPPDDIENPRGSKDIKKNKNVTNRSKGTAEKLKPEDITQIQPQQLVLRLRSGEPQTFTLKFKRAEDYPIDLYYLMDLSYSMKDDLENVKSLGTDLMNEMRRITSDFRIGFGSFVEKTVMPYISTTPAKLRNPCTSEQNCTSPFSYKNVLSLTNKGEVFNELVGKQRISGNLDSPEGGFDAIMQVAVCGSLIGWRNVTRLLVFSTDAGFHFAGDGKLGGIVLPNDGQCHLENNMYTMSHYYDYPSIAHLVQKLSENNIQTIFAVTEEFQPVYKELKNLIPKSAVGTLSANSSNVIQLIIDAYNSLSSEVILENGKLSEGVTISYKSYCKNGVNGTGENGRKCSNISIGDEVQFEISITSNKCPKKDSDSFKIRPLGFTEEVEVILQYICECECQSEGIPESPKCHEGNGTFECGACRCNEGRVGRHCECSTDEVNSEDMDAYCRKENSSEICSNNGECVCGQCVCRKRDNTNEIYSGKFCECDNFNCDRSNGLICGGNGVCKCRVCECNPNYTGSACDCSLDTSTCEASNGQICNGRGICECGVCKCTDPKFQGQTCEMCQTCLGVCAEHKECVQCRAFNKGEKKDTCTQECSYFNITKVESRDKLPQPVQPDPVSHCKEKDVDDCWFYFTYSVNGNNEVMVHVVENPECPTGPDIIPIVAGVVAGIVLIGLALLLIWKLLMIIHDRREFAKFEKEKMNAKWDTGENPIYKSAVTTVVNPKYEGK
# [10] = molecular target: integrin αvβ3 (Homo sapiens, UniProt P05106+P06756); assay: SPR binding to immobilised integrin αvβ3; details: for kon: read-out: ka
# integrin αvβ3, sequence (P06756 31-1048): as the sequence (P06756 31-1048) above
# integrin αvβ3, sequence (P05106 27-788): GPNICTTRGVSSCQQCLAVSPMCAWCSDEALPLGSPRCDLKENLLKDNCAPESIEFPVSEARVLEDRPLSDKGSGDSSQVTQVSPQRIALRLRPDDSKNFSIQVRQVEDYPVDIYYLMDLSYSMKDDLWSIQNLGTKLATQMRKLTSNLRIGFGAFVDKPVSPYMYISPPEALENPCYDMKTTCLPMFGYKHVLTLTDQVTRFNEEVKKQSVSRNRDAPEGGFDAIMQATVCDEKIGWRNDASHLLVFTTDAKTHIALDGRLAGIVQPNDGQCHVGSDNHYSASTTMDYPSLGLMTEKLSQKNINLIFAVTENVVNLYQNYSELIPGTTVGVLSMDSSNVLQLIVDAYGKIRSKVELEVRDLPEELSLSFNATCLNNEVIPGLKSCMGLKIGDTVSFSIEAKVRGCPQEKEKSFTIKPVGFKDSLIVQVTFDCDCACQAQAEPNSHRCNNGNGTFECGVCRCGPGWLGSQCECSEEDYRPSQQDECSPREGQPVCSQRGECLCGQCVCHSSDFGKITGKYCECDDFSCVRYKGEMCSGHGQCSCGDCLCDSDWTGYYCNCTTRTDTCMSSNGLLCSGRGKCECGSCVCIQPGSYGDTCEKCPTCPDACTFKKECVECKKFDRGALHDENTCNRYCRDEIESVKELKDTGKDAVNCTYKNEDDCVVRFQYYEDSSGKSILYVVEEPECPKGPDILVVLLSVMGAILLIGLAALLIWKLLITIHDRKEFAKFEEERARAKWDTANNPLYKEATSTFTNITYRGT
compound,measurement,setting,value
COC(=O)[C@@H]1Cc2cn(C(=O)C(C)(C)C)c3c(cccc23)C2=CC(=O)N(CCCCCC(=O)NC3(CCCC3)C(=O)N1)C2=O,"ring closure, isolated yield","[1]; from COC(=O)[C@H](Cc1cn(C(=O)C(C)(C)C)c2ccccc12)NC(=O)C1(NC(=O)CCCCCN2C(=O)C=CC2=O)CCCC1, 20-membered ring",0%
COC(=O)[C@@H]1Cc2cn(C(=O)C(C)(C)C)c3c(cccc23)C2=CC(=O)N(CCCC[C@H](NC(=O)OC(C)(C)C)C(=O)N[C@@H](C)C(=O)N[C@@H](Cc3ccccc3)C(=O)N[C@@H](CC(C)C)C(=O)NCC(=O)N1)C2=O [Boc-Lys(Nε-maleimide)-Ala-Phe-Leu-Gly-Trp(Piv)-OMe],"ring closure, isolated yield","[1]; from COC(=O)[C@H](Cc1cn(C(=O)C(C)(C)C)c2ccccc12)NC(=O)CNC(=O)[C@H](CC(C)C)NC(=O)[C@H](Cc1ccccc1)NC(=O)[C@H](C)NC(=O)[C@H](CCCCN1C(=O)C=CC1=O)NC(=O)OC(C)(C)C, 29-membered ring",35%
COC(=O)[C@@H]1Cc2cn(C(=O)C(C)(C)C)c3c(cccc23)C2=CC(=O)N(CCCCCCCCCCC(=O)N1)C2=O [11-maleimidoundecanoyl-Trp(Piv)-OMe],"ring closure, isolated yield","[1]; from COC(=O)[C@H](Cc1cn(C(=O)C(C)(C)C)c2ccccc12)NC(=O)CCCCCCCCCCN1C(=O)C=CC1=O, 22-membered ring",22%
COC(=O)[C@@H]1Cc2c[nH]c3c(cccc23)C2C(=O)N(CCCC[C@H](N)C(=O)N[C@@H](CCCNC(=N)N)C(=O)NCC(=O)N[C@@H](CC(=O)O)C(=O)NCC(=O)N1)C(=O)C2SCCC(=O)NCC(=O)N[C@@H](Cc1ccccc1)C(=O)N[C@@H](CC(C)C)C(=O)NCC(=O)N[C@H]1C[C@H](O[C@H]2C[C@](O)(C(=O)CO)Cc3c(O)c4c(c(O)c32)C(=O)c2c(OC)cccc2C4=O)O[C@@H](C)[C@H]1O (stereo partly drawn) [RGD-GFLG-DOX],cytotoxicity (in words),[2],stronger cytotoxicity than DOX
same,cytotoxicity (in words),[3],lower cytotoxicity
same,cytotoxicity (in words),[4],lower cytotoxicity
same,cytotoxicity (in words),[5],lower cytotoxicity
same,cytotoxicity (in words),[6],stronger cytotoxicity than DOX
same,cytotoxicity (in words),[7],lower cytotoxicity
COC(=O)[C@@H]1Cc2cn(C(=O)C(C)(C)C)c3c(cccc23)C2=CC(=O)N(CCCC[C@H](NC(=O)OC(C)(C)C)C(=O)N[C@@H](C(C)C)C(=O)N[C@@H](Cc3ccccc3)C(=O)NCC(=O)N1)C2=O [Boc-Lys(Nε-maleimide)-Val-Phe-Gly-Trp(Piv)-OMe],"ring closure, isolated yield","[1]; from COC(=O)[C@H](Cc1cn(C(=O)C(C)(C)C)c2ccccc12)NC(=O)CNC(=O)[C@H](Cc1ccccc1)NC(=O)[C@@H](NC(=O)[C@H](CCCCN1C(=O)C=CC1=O)NC(=O)OC(C)(C)C)C(C)C, 26-membered ring",39%
COC(=O)[C@@H]1Cc2c[nH]c3c(cccc23)C2=CC(=O)N(CCCC[C@H](N)C(=O)N[C@@H](CCCNC(=N)N)C(=O)NCC(=O)N[C@@H](CC(=O)O)C(=O)NCC(=O)N1)C2=O [10a],Kd,[8],6.13 µM
same,kon,[8],12500 M⁻¹ s⁻¹
same,Kd,[9],8.36 µM
same,kon,[9],15300 M⁻¹ s⁻¹
same,Kd,[10],0.675 µM
same,kon,[10],42300 M⁻¹ s⁻¹
CC[C@H](C)[C@@H]1NC(=O)[C@H](C(C)(C)C)NC(=O)[C@@H](NC(=O)OC(C)(C)C)Cc2cn(C(=O)C(C)(C)C)c3c(cccc23)C2=CC(=O)N(CCCC[C@@H](C(=O)OC)NC(=O)CNC1=O)C2=O [Boc-Trp(Piv)-Tle-Ile-Gly-Lys(Nε-maleimide)-OMe],"ring closure, isolated yield","[1]; from CC[C@H](C)[C@H](NC(=O)[C@@H](NC(=O)[C@H](Cc1cn(C(=O)C(C)(C)C)c2ccccc12)NC(=O)OC(C)(C)C)C(C)(C)C)C(=O)NCC(=O)N[C@@H](CCCCN1C(=O)C=CC1=O)C(=O)OC, 26-membered ring",34%
CC[C@H](C)[C@@H]1NC(=O)[C@H](Cc2ccccc2)NC(=O)[C@H](CCC(=O)OC(C)(C)C)NC(=O)CCN2C(=O)C=C(C2=O)c2cccc3c(cn(C(=O)C(C)(C)C)c23)C[C@@H](C(=O)OC)NC(=O)CNC1=O [3-maleimidopropionyl-Glu(OtBu)-Phe-Ile-Gly-Trp(Piv)-OMe],"ring closure, isolated yield","[1]; from CC[C@H](C)[C@H](NC(=O)[C@H](Cc1ccccc1)NC(=O)[C@H](CCC(=O)OC(C)(C)C)NC(=O)CCN1C(=O)C=CC1=O)C(=O)NCC(=O)N[C@@H](Cc1cn(C(=O)C(C)(C)C)c2ccccc12)C(=O)OC, 26-membered ring",35%
CC[C@H](C)[C@@H]1NC(=O)[C@@H](NC(=O)OC(C)(C)C)CCCCN2C(=O)C=C(C2=O)c2cccc3c(cn(C(=O)C(C)(C)C)c23)C[C@@H](C(=O)N[C@H](C(=O)OC)[C@@H](C)CC)NC(=O)CNC(=O)[C@H](C)NC1=O [Boc-Lys(Nε-maleimide)-Ile-Ala-Gly-Trp(Piv)-Ile-OMe],"ring closure, isolated yield","[1]; from CC[C@H](C)[C@H](NC(=O)[C@H](CCCCN1C(=O)C=CC1=O)NC(=O)OC(C)(C)C)C(=O)N[C@@H](C)C(=O)NCC(=O)N[C@@H](Cc1cn(C(=O)C(C)(C)C)c2ccccc12)C(=O)N[C@H](C(=O)OC)[C@@H](C)CC, 26-membered ring",32%
COC(=O)[C@@H]1Cc2cn(C(=O)C(C)(C)C)c3c(cccc23)C2=CC(=O)N(CCCCCCCCCCC(=O)NCC(=O)NCC(=O)N1)C2=O [11-maleimidoundecanoyl-Gly-Gly-Trp(Piv)-OMe],"ring closure, isolated yield","[1]; from COC(=O)[C@H](Cc1cn(C(=O)C(C)(C)C)c2ccccc12)NC(=O)CNC(=O)CNC(=O)CCCCCCCCCCN1C(=O)C=CC1=O, 28-membered ring",38%
COC(=O)[C@@H]1Cc2cn(C(=O)C(C)(C)C)c3c(cccc23)C2=CC(=O)N(CCCC[C@H](NC(=O)OC(C)(C)C)C(=O)N1)C2=O [Boc-Lys(Nε-maleimide)-Trp(Piv)-OMe],"ring closure, isolated yield","[1]; from COC(=O)[C@H](Cc1cn(C(=O)C(C)(C)C)c2ccccc12)NC(=O)[C@H](CCCCN1C(=O)C=CC1=O)NC(=O)OC(C)(C)C, 17-membered ring",0%
COC(=O)[C@@H]1Cc2cn(C(=O)C(C)(C)C)c3c(cccc23)C2=CC(=O)N(CCC(=O)N[C@@H](CC(=O)OC(C)(C)C)C(=O)N[C@@H](C)C(=O)N[C@@H](C(C)C)C(=O)NCC(=O)N1)C2=O [3-maleimidopropionyl-Asp(OtBu)-Ala-Val-Gly-Trp(Piv)-OMe],"ring closure, isolated yield","[1]; from COC(=O)[C@H](Cc1cn(C(=O)C(C)(C)C)c2ccccc12)NC(=O)CNC(=O)[C@@H](NC(=O)[C@H](C)NC(=O)[C@H](CC(=O)OC(C)(C)C)NC(=O)CCN1C(=O)C=CC1=O)C(C)C, 26-membered ring",43%
"N=C(N)NCCC[C@@H]1NC(=O)[C@H](CCCCNC(=S)Nc2ccc3c(c2)C(=O)OC32c3ccc(O)cc3Oc3cc(O)ccc32)NC(=O)[C@@H](Cc2ccccc2)NC(=O)[C@H](CC(=O)O)NC(=O)CNC1=O [10c, cyclo-(RGDfK (FITC)), reference compound]",Kd,[8],4.13 µM
same,kon,[8],23400 M⁻¹ s⁻¹
same,Kd,[9],2.76 µM
same,kon,[9],25400 M⁻¹ s⁻¹
same,Kd,[10],65.5 µM
same,kon,[10],10300 M⁻¹ s⁻¹
COC(=O)[C@@H]1Cc2cn(C(=O)C(C)(C)C)c3c(cccc23)C2=CC(=O)N(CCCCCC(=O)N[C@@H](C)C(=O)NCC(=O)N1)C2=O [6-maleimidohexanoyl-Ala-Gly-Trp(Piv)-OMe],"ring closure, isolated yield","[1]; from COC(=O)[C@H](Cc1cn(C(=O)C(C)(C)C)c2ccccc12)NC(=O)CNC(=O)[C@H](C)NC(=O)CCCCCN1C(=O)C=CC1=O, 23-membered ring",15%
COC(=O)[C@@H]1Cc2cn(C(=O)C(C)(C)C)c3c(cccc23)C2=CC(=O)N(CCCC[C@H](NC(=O)OC(C)(C)C)C(=O)N[C@@H](CCCNC(=N)NS(=O)(=O)c3c(C)c(C)c4c(c3C)CC(C)(C)O4)C(=O)NCC(=O)N[C@@H](CC(=O)OC(C)(C)C)C(=O)NCC(=O)N1)C2=O,"ring closure, isolated yield","[1]; from COC(=O)[C@H](Cc1cn(C(=O)C(C)(C)C)c2ccccc12)NC(=O)CNC(=O)[C@H](CC(=O)OC(C)(C)C)NC(=O)CNC(=O)[C@H](CCCNC(=N)NS(=O)(=O)c1c(C)c(C)c2c(c1C)CC(C)(C)O2)NC(=O)[C@H](CCCCN1C(=O)C=CC1=O)NC(=O)OC(C)(C)C, 29-membered ring",32%
